Laboratory results published in patent US20230049917A1, “Pharmaceutical Composition of CASR Modulators and Methods and Uses Thereof” (Lupin Limited, priority 2019, published 2023).
Where two headings read alike, the source gives them in different places.

Legend:
[1] = cited from earlier work
[2] = Pharmacokinetic analysis after oral administration of the formulation to rats; format: in vivo; conditions: male, Sprague Dawley, rat, 5 mg/kg
Protocol: Male Sprague Dawley Rats (weight 225±25 gm; aged 8 to 10 weeks) were administered orally with the formulation. Each of the tested compounds was dosed at 5 mg/kg at a dose volume of 1 mL/kg. Blood samples were collected at time points 0.25, 0.5, 1, 2, 4, 6, 8 and 24 hours and analyzed the plasma concentrations of administered compound and calculated PK parameters. The plasma concentrations of the tested compounds were measured by liquid chromatography with tandem mass spectrometry (LCMS-MS) using […] extraction method. The plasma concentration-time data was subjected to Non-Compartmental Analysis using Phoenix WinNonlin® (Version 5.3) software to assess the pharmacokinetic parameters. Peak plasma concentrations (Cmax) and time for the peak plasma concentrations (Tmax) were the observed values. The area under the concentration time curve (AUC) was calculated by linear trapezoidal rule.

[3] = CKD patients not on dialysis, week 32

| Structure (SMILES) | AUC(0-t) ([2]; in vivo, po) | Cmax ([2]; in vivo, po) | Tmax ([2]; in vivo, po) | also measured |
| --- | --- | --- | --- | --- |
| C[C@@H](NCCCc1cccc(C(F)(F)F)c1)c1cccc2ccccc12 [Cinacalcet] |  |  |  | phosphorus levels [1, 3]: 4.5 ± 1.0 mg/dL; phosphorus levels, change [1, 3]: +21.4%; serum calcium levels, frequently observed ([1]; patients with CKD not on dialysis): < 8.4 mg/dL |
| C[C@@H](NC[C@H]1CN(c2cc(C(=O)O)cc(C(F)(F)F)c2)CCO1)c1cccc2ccccc12 [Compound 1, 3-((S)-2-((((R)-1-(naphthalen-1-yl)ethyl)amino)methyl)morpholino)-5-(trifluoromethyl)benzoic acid] |  |  |  | AUC(0-t) ([2]; oral, dose volume 1 mL/kg, plasma, sampling to 24 hours, read-out: AUC0-1): 7.3 ± 0.5 µM·h; Cmax ([2]; oral, plasma, read-out: Cmax): 3.6 ± 1 µM; Tmax ([2]; oral, plasma, read-out: Tmax): 15 to 60 min |
| Cc1ccc(N2C[C@H](CCN[C@H](C)c3cccc4ccccc34)Oc3ccccc32)cc1C(=O)O.Cl [Compound 2, 2-methyl-5-((S)-2-(2-(((R)-1-(naphthalen-1-yl)ethyl)amino)ethyl)-2H-benzo[b][1,4]oxazin-4(3H)-yl)benzoic acid] | 16 ± 3 µM·h | 4.9 ± 3 µM | 15 min |  |
| COc1cc([C@@H](C)NC[C@@H]2Cc3ccccc3[C@H](c3ccc(C)c(C(=O)O)c3C)C2)ccc1F.Cl [Compound 4, 3-((1R,3S)-3-((((R)-1-(4-fluoro-3-methoxyphenyl)ethyl)amino)methyl)-1,2,3,4-tetrahydronaphthalen-1-yl)-2,6-dimethylbenzoic acid] | 5.5 ± 1 µM·h | 1.5 ± 1 µM | 30 to 120 min |  |
